According to paper PMC12627862, “Therapeutic targeting of endothelial calcium signaling accelerates the resolution of lung injury” (Signal Transduction and Targeted Therapy, 2025):
Read-outs that look alike come from different tables or passages of the source. Starred links: 1 amine or outer side, 2 acyl side, 3 side chain; linkers in the order of their positions; H or OH if unused. Positions of bridges follow the written chain, without caps; N, C: chain ends. Non-standard residues stand in square brackets, D forms with d. Residues, ends and D or L forms follow the SMILES beside them. No end group written: not given here. ξ: configuration not given here. *: point of attachment. Leu(4,5-dehydro) = C=C(C)C[C@H](N)C(=O)O; Oic = O=C(O)[C@@H]1C[C@@H]2CCCC[C@@H]2N1; X4 = C=C(C)C[C@@H](N[*:1])C(=O)[*:2]; dVal(3-OH) = CC(C)(O)[C@@H](N)C(=O)O; cisHyp = O=C(O)[C@@H]1C[C@H](O)CN1; tBuAla = CC(C)(C)C[C@H](N)C(=O)O; Myristoyl = CCCCCCCCCCCCCC(=O)*; R5 = C=CCCC[C@@](C)(N)C(=O)O; X1 = O=C(CC(O)CN[*:1])[*:2]; 3Amb = NCc1cccc(C(=O)O)c1; 4Amb = NCc1ccc(C(=O)O)cc1; ξP = O=C(O)C1CCCN1

Columns and labels:
[1] = Stability of selected EB3 inhibitors in human blood plasma; format: in vitro ADME; settings: human, plasma
Procedure: Supplementary Table 3. Stability of selected EB3 inhibitors in human blood plasma. The indicated inhibitors were incubated with human plasma at 37 °C and samples were taken at the indicated time points. Plasma proteins were precipitated with ice-cold perchloric acid (60%); the concentration of compounds was measured in supernatant using a liquid chromatography-tandem mass spectrometry (LC-MS/MS). See also Figures 1 and 2.

[2] = Aggregation / solubility at 1 mM; format: physicochemical; settings: summary calls it solubility at 1mM
Procedure: (§1) The solubilities of the synthesized compounds were determined experimentally (Supplementary Table 2). Most compounds were highly soluble at a 1 mM concentration; however, some compounds tended to form aggregates. These compounds were excluded from further studies. In addition, we experimentally determined the lipophilicity of each compound, logP(oct/wat)=log(soluteoct/solutewat ), which is the partition coefficient of a compound between aqueous (water) and lipophilic (octanol) phases (Supplementary Table 2).

[3] = Lipophilicity of peptides, logP(oct/wat); format: physicochemical
Procedure: as §1
Lipophilicity of peptides. Two separate solutions were obtained: an aqueous phosphate buffer with saturated n-octanol, and an n-octanol solution with saturated phosphate buffer. Peptides were then dissolved and diluted in the phosphate buffer. Different partitions were then made with different n-octanol to water ratio before shaking for an hour at room temperature. The aqueous phase and n-octanol were allowed to equilibrate, and each phase was extracted and analyzed for peptide concentrations. The ratio of peptide concentration in n-octanol to that in water is expressed as log(P).

[4] = target: EB3 interactions with IP3R3-GFP (Homo sapiens, UniProt Q9UPY8); test: Competitive binding: inhibition of EB3 interaction with IP3R3-GFP in vitro; format: biochemical; settings: for inhibition at 0.25 µM: 250 nM
Chain of EB3 interactions with IP3R3-GFP (Q9UPY8 whole entry): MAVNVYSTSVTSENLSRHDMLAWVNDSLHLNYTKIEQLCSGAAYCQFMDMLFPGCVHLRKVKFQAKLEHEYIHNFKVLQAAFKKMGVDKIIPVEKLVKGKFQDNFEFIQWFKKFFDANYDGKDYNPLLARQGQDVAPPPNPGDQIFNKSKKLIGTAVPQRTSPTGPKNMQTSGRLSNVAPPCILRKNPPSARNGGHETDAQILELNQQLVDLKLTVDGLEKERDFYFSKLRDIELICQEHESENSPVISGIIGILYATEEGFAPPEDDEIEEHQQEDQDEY
Excerpt: We tested the efficacy of twenty-three compounds in inhibiting EB3 interactions with IP3R3-GFP via an in vitro approach developed by us[12],[13]. […] Guided by NMR studies, we predicted the binding pose of 109 to EB3 via AutoDock Vina[13],[24],[25].

[5] = test system: human primary microvascular lung endothelial cells (HLMVECs); test: Peptide uptake in endothelial cells; format: cell-based
Procedure: We next analyzed the cell-penetrating properties of the selected compounds, hereafter referred to as vascular therapeutics (VT). The rate of uptake of 5’6-FAM (fluorescein)-labeled compounds by human primary microvascular lung endothelial cells (HLMVECs) was determined via confocal fluorescence live-cell imaging. FAM-labeled Myr-EBIN[13] and fluorescein alone were used as positive and negative controls, respectively. The t½ uptake and maximal uptake were determined from changes in the integrated fluorescence intensity over a 30 min period (Fig. 2a and Supplementary Fig. 1a). […] Like Myr-EBIN, compounds VT-107, -108 and -109 presented the highest uptake rates of 92.5 ± 5.0%, 82.5 ± 2.8% and 94.7 ± 4.9%, respectively, whereas the linear compound VT-101 was taken up less efficiently, with an average uptake of 58.4 ± 2.7% (Fig. 2a). […] The t½ uptake, however, varied between the tested compounds (Fig. 2b). The stapled compounds presented the shortest t½ uptake, whereas the linear compounds presented the longest t½ (Fig. 2b).
Peptide uptake in endothelial cells. The rate of peptide uptake by primary human microvascular endothelial cells was measured using 5’6FAM (fluorescein)-labeled peptides and confocal fluorescence live-cell imaging, with fluorescein alone used as a negative control. Changes in intracellular fluorescence for each peptide were monitored over time, and saponin, a detergent, was added at the end of the experiment to induce full uptake of the tested peptides by endothelial cells. The fluorescence intensity inside the cells was tracked over time, and the half-time uptake (t1/2) and maximum uptake were calculated.

[6] = Stability at various storage conditions; format: physicochemical
Procedure: Stability assay of peptides in various storage conditions. Peptides were dissolved and stored in phosphate-buffered sterile saline at -20, 4, 37, and 60°C for 8 days. The amount of peptide remaining after the study was analyzed by LC-MS/MS.
Supplementary Table 5. Stability of selected compounds at various storage conditions. Preliminary accelerated storage stability at various temperature conditions for the selected inhibitors was tested in phosphate-buffered sterile saline at -20 °C, 4 °C, 37 °C and 60 °C for 8 days. See also Figures 1 and 2.

Molecule | Aggregation at 1mM [2] | logD [3] | inhibition at 0.25 µM [4] | half-time uptake t1/2 [5] | other results
CCCCCCCCCCCCCC(=O)N[C@@H](Cc1ccccc1)C(=O)N[C@H](C(=O)N[C@@H](CCC(=O)O)C(=O)N[C@H](C(=O)N1CCC[C@H]1C(=O)N[C@H](C(=O)N[C@H](C(=O)O)[C@@H](C)CC)[C@@H](C)O)[C@@H](C)CC)[C@@H](C)O [Myr-EBIN, reference compound] (Myristoyl-FTEIPTI-OH) | – | – | – | – | remaining at 1.5 h [1]: 105%; remaining at 20 h [1]: 53%
CC[C@H](C)[C@H](NC(=O)[C@H](NC(=O)[C@@H]1C[C@H](O)CN1C(=O)[C@H](CC(C)(C)C)NC(=O)c1cccc(CNC(=O)[C@H](NC(=O)[C@@H](N)Cc2ccccc2)C(C)(C)O)c1)C(C)(C)O)C(=O)O [compound 042, ((R)-2-((2S,4S)-1-((S)-2-(3-(((R)-2-((S)-2-amino-3-phenylpropanamido)-3-hydroxy-3-methylbutanamido)methyl)benzamido)-4,4-dimethylpentanoyl)-4-hydroxypyrrolidine-2-carboxamido)-3-hydroxy-3-methylbutanoyl)-L-isoleucine] (H-F[dVal(3-OH)][3Amb][tBuAla][cisHyp][dVal(3-OH)]I-OH) | weak signal | 0.03 | 36% | – | –
C=C(C)C[C@H](NC(=O)[C@@H](NC(=O)[C@@H]1CCCN1C(=O)[C@H](CC(C)(C)C)NC(=O)[C@H](CCC(=O)O)NC(=O)[C@H](NC(=O)[C@H](N)Cc1ccccc1)C(C)(C)O)[C@@H](C)O)C(N)=O [compound 044, (S)-4-((R)-2-((R)-2-amino-3-phenylpropanamido)-3-hydroxy-3-methylbutanamido)-5-(((S)-1-((S)-2-(((2S,3R)-1-(((S)-1-amino-4-methyl-1-oxopent-4-en-2-yl)amino)-3-hydroxy-1-oxobutan-2-yl)carbamoyl)pyrrolidin-1-yl)-4,4-dimethyl-1-oxopentan-2-yl)amino)-5-oxopentanoic acid] (H-[dF][dVal(3-OH)]E[tBuAla]PT[Leu(4,5-dehydro)]-NH2) | weak signal | -0.59 | 51% | – | –
C=C(C)C[C@H]1NC(=O)[C@](C)(NC(=O)[C@@H](CCC(=O)O)NC(=O)[C@H](N)[C@H](C)O)CCC/C=C\CCC[C@](C)(C(=O)N[C@H](C(=O)O)[C@@H](C)CC)NC(=O)[C@H]([C@@H](C)O)NC(=O)C2CCCN2C1=O (stereo partly drawn) [compound 052, (4R)-4-((2R,3S)-2-amino-3-hydroxybutanamido)-5-(((3S,6R,15R,18R,Z)-6-(((1S,2S)-1-carboxy-2-methylbutyl)carbamoyl)-3-((R)-1-hydroxyethyl)-6,15-dimethyl-18-(2-methylallyl)-1,4,16,19-tetraoxo-2,3,4,5,6,7,8,9,12,13,14,15,16,17,18,19,21,22,23,23a-icosahydro-1H-pyrrolo[1,2-d][1,4,7,10]tetraazacyclohenicosin-15-yl)amino)-5-oxopentanoic acid] (H-[dT][dE][R5][X4][ξP]T[R5]I-OH; staple (Z) 3-7) | 0.17 | -0.07 | 73% | – | –
CC(C)(C)C[C@H](NC(=O)CC(O)CNC(=O)[C@@H]1C[C@@H]2CCCC[C@@H]2N1C(=O)[C@H](CC(C)(C)C)NC(=O)c1ccc(CNC(=O)[C@H](NC(=O)[C@H](N)Cc2ccccc2)C(C)(C)O)cc1)C(=O)O (stereo partly drawn) [compound 101, (2S)-2-(4-((2S,3aS,7aS)-1-((S)-2-(4-(((R)-2-((R)-2-amino-3-phenylpropanamido)-3-hydroxy-3-methylbutanamido)methyl)benzamido)-4,4-dimethylpentanoyl)octahydro-1H-indole-2-carboxamido)-3-hydroxybutanamido)-4,4-dimethylpentanoic acid.] (H-[dF][dVal(3-OH)][4Amb][tBuAla][Oic][X1][tBuAla]-OH) | weak signal | 0.52 | 41% | 9.58 ± 0.09 min | penetration of the cell membrane [5]: able to penetrate the cell membrane without the addition of a cell internalization signal; remaining at 1.5 h [1]: 87%; remaining at 20 h [1]: 85%; storage stability [6]: stable
C=C(C)C[C@H](NC(=O)c1ccc(CNC(=O)CC(O)CNC(=O)[C@H](N)Cc2ccccc2)cc1)C(=O)N1[C@H](C(=O)NCC(O)CC(=O)N[C@@H](CC(C)(C)C)C(=O)O)C[C@@H]2CCCC[C@@H]21 (stereo partly drawn) [compound 102, (2S)-2-(4-((2S,3aS,7aS)-1-((2S)-2-(4-((4-((R)-2-amino-3-phenylpropanamido)-3-hydroxybutanamido)methyl)benzamido)-4-methylpent-4-enoyl)octahydro-1H-indole-2-carboxamido)-3-hydroxybutanamido)-4,4-dimethylpentanoic acid.] | weak signal | 0.2 | – | – | Competitive Binding at 250nM (% Inhibition) [4]: no inhibition
CC(C)(C)C[C@H](NC(=O)CC(O)CNC(=O)[C@@H]1C[C@@H]2CCCC[C@@H]2N1C(=O)[C@H](CC(C)(C)C)NC(=O)c1ccc(CNC(=O)[C@H](N)C(C)(C)O)cc1)C(=O)O (stereo partly drawn) [compound 103, (2S)-2-(4-((2S,3aS,7aS)-1-((S)-2-(4-(((R)-2-amino-3-hydroxy-3-methylbutanamido)methyl)benzamido)-4,4-dimethylpentanoyl)octahydro-1H-indole-2-carboxamido)-3-hydroxybutanamido)-4,4-dimethylpentanoic acid] (H-[dVal(3-OH)][4Amb][tBuAla][Oic][X1][tBuAla]-OH) | weak signal | 0.44 | 12% | – | –
C=C(C)C[C@H](NC(=O)c1ccc(CNC(=O)CC(O)CN)cc1)C(=O)N1[C@H](C(=O)NCC(O)CC(=O)N[C@@H](CC(C)(C)C)C(=O)O)C[C@@H]2CCCC[C@@H]21 (stereo partly drawn) [compound 104, (2S)-2-(4-((2S,3aS,7aS)-1-((2S)-2-(4-((4-amino-3-hydroxybutanamido)methyl)benzamido)-4-methylpent-4-enoyl)octahydro-1H-indole-2-carboxamido)-3-hydroxybutanamido)-4,4-dimethylpentanoic acid.] | weak signal | -0.3 | 40% | 8.56 ± 0.48 min | –
C=C(C)C[C@H](NC(=O)CC(O)CNC(=O)[C@@H]1C[C@@H]2CCCC[C@@H]2N1C(=O)[C@H](CC(=C)C)NC(=O)c1ccc(CNC(=O)[C@H](NC(=O)[C@H](N)Cc2ccccc2)C(C)(C)O)cc1)C(=O)O (stereo partly drawn) [compound 105, (2S)-2-(4-((2S,3aS,7aS)-1-((S)-2-(4-(((R)-2-((R)-2-amino-3-phenylpropanamido)-3-hydroxy-3-methylbutanamido)methyl)benzamido)-4-methylpent-4-enoyl)octahydro-1H-indole-2-carboxamido)-3-hydroxybutanamido)-4-methylpent-4-enoic acid.] (H-[dF][dVal(3-OH)][4Amb][Leu(4,5-dehydro)][Oic][X1][Leu(4,5-dehydro)]-OH) | weak signal | -0.37 | 70% | – | –
FTEIPTI [compound 000, (S)-4-((2S,3R)-2-((S)-2-amino-3-phenylpropanamido)-3-hydroxybutanamido)-5-(((2S,3S)-1-((S)-2-(((2S,3R)-1-(((1S,2S)-1-carboxy-2-methylbutyl)amino)-3-hydroxy-1-oxobutan-2-yl)carbamoyl)pyrrolidin-1-yl)-3-methyl-1-oxopentan-2-yl)amino)-5-oxopentanoic acid, reference compound] | – | – | – | 2.50 ± 0.06 min | Log P (Octanol/Water) [3]: 0.75; Competitive Binding at 250nM (% Inhibition) ([4]; 0.25 µM): no inhibition; Competitive Binding at 250nM (% Inhibition) ([4]; listed as EBIN, 0.25 µM): did not
